Experimental data from ChEMBL document CHEMBL5360622, “Leucettinibs, a Class of DYRK/CLK Kinase Inhibitors Inspired by the Marine Sponge Natural Product Leucettamine B” (J Med Chem, 2023).
pIC50: −log10 of the molar value.

What was measured:
[1] = target: Aurora kinase A (Homo sapiens) (UniProt O14965); conditions: dose 10.0 µM
[2] = target: Dual specificity tyrosine-phosphorylation-regulated kinase 2 (Homo sapiens) (UniProt Q92630); conditions: dose 10.0 µM
[3] = target: BMP-2-inducible protein kinase (Homo sapiens) (UniProt Q9NSY1); conditions: dose 10.0 µM
[4] = target: T1, Dual specificity tyrosine-phosphorylation-regulated kinase 3 (Homo sapiens, UniProt O43781)
T1 sequence (O43781 whole entry): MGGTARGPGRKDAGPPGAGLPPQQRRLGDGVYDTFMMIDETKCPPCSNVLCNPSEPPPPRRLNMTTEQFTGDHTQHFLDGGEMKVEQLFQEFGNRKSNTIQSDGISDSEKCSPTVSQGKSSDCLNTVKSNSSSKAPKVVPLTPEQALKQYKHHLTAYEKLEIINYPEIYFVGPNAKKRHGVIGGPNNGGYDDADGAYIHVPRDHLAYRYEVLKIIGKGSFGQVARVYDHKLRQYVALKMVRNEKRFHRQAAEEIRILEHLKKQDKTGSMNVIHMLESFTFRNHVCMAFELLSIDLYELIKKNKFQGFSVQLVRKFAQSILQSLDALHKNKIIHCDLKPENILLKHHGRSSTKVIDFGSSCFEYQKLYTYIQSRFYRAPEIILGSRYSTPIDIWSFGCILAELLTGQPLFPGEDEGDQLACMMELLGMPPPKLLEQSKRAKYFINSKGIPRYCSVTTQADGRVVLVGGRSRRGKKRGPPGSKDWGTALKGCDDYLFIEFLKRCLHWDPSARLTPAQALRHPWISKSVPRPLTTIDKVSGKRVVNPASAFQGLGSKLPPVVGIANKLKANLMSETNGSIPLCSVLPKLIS

[5] = target: Calcium/calmodulin-dependent protein kinase kinase 2 (Homo sapiens) (UniProt Q96RR4); conditions: dose 10.0 µM
[6] = target: Serine/threonine-protein kinase haspin (Homo sapiens) (UniProt Q8TF76); conditions: dose 10.0 µM
[7] = target: Homeodomain-interacting protein kinase 2 (Homo sapiens) (UniProt Q9H2X6); conditions: dose 10.0 µM
[8] = target: Myotonin-protein kinase (Homo sapiens) (UniProt Q09013); conditions: dose 10.0 µM
[9] = target: Casein kinase II subunit alpha (Homo sapiens) (UniProt P68400); conditions: dose 10.0 µM
[10] = target: Casein kinase I isoform delta (Homo sapiens) (UniProt P48730); conditions: dose 10.0 µM
[11] = target: Cyclin-dependent kinase 5/CDK5 activator 1 (Homo sapiens, UniProt Q00535); format: cell-based, Sf9
[12] = target: T2, Casein kinase I isoform epsilon (Homo sapiens, UniProt P49674); conditions: dose 10.0 µM
[13] = target: T2, Casein kinase I isoform epsilon
[14] = target: T3, Dual specificity tyrosine-phosphorylation-regulated kinase 1A (Homo sapiens, UniProt Q13627)
[15] = target: T3, Dual specificity tyrosine-phosphorylation-regulated kinase 1A; conditions: dose 10.0 µM
[16] = target: T4, Dual specificity tyrosine-phosphorylation-regulated kinase 4 (Homo sapiens, UniProt Q9NR20)
T4 sequence (Q9NR20 whole entry): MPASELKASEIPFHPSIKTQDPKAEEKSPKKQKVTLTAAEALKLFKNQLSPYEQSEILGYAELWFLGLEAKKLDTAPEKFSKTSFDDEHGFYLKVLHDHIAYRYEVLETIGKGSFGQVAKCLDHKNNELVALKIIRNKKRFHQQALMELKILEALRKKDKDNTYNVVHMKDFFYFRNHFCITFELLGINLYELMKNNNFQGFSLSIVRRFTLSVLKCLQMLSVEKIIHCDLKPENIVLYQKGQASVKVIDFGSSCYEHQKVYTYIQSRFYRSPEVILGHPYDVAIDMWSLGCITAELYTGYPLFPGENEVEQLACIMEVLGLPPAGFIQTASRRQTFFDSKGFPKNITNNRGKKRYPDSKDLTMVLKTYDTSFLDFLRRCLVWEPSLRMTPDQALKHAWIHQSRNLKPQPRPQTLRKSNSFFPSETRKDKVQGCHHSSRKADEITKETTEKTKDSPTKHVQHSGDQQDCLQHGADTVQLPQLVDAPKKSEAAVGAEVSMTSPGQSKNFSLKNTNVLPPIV

[17] = target: Serine/threonine-protein kinase pim-3 (Homo sapiens) (UniProt Q86V86); conditions: dose 10.0 µM
[18] = target: Dual specificity protein kinase CLK2 (Homo sapiens, UniProt P49760)
[19] = target: T5, Mitogen-activated protein kinase 15 (Homo sapiens) (UniProt Q8TD08); conditions: dose 10.0 µM
T5 sequence (whole entry): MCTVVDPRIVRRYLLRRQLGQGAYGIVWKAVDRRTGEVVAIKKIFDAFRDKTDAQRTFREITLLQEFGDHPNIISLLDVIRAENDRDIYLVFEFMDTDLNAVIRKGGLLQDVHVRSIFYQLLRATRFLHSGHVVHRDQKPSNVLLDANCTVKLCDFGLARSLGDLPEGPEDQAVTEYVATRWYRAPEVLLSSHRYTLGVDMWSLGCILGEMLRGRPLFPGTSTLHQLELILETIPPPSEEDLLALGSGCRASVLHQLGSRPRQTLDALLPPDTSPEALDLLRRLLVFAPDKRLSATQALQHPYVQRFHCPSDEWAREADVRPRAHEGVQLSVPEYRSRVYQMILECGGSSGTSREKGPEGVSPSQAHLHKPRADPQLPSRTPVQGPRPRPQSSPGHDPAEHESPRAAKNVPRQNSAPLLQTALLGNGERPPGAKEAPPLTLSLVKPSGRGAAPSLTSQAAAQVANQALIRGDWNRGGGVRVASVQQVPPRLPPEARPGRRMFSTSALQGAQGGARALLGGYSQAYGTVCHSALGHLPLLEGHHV

[20] = target: T6, Glycogen synthase kinase-3 beta (Homo sapiens, UniProt P49841); format: cell-based, Sf9
Target sequence in this assay (P49841 whole entry): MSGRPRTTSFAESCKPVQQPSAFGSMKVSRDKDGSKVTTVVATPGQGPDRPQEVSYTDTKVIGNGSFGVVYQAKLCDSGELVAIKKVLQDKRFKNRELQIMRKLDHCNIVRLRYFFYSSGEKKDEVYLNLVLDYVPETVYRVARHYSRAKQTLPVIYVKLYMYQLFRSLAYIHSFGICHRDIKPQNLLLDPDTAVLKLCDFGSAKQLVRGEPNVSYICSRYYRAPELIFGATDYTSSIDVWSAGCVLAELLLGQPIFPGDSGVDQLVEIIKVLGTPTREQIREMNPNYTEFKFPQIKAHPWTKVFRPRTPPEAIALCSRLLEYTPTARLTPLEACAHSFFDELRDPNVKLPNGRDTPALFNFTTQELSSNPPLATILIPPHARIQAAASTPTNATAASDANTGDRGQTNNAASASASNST

[21] = target: T7, Dual specificity protein kinase CLK1 (Homo sapiens, UniProt P49759); format: cell-based, Sf9
[22] = target: T6, Glycogen synthase kinase-3 beta; conditions: dose 10.0 µM
Target sequence in this assay (P49841 whole entry, looked up): as the sequence (P49841 whole entry) above

[23] = target: T7, Dual specificity protein kinase CLK1; conditions: dose 10.0 µM

Sequence of Casein kinase II subunit alpha (Homo sapiens) (P68400 whole entry, looked up, canonical isoform): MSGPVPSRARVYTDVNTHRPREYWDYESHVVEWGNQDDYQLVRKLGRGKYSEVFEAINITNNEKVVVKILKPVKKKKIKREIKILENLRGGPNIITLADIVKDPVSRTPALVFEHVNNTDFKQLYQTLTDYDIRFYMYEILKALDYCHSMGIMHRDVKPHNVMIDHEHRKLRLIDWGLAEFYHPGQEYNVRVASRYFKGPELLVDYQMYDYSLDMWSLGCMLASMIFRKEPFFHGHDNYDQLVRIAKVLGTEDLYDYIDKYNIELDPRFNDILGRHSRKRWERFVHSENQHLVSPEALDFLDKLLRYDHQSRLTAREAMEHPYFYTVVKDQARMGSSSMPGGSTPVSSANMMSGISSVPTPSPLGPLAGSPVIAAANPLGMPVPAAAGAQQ
Sequence of Cyclin-dependent kinase 5/CDK5 activator 1 (Q00535 whole entry, canonical isoform): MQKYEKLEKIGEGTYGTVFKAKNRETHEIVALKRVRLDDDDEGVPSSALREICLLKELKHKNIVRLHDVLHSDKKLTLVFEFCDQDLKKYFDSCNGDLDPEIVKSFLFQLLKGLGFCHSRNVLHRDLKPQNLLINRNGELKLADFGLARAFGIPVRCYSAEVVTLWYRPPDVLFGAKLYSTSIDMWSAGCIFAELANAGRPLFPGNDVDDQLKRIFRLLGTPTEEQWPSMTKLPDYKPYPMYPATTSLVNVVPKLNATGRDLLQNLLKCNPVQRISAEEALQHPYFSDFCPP
Sequence of Cyclin-dependent kinase 5/CDK5 activator 1 (Q15078 whole entry, further chain, canonical isoform): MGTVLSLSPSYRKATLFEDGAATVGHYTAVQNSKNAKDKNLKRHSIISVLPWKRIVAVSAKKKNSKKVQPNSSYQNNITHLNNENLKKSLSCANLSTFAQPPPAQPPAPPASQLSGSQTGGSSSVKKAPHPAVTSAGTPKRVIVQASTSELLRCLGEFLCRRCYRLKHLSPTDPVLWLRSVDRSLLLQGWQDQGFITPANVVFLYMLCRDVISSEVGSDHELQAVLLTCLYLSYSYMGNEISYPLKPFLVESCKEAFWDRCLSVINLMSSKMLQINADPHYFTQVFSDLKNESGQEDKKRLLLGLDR
Sequence of Serine/threonine-protein kinase haspin (Homo sapiens) (Q8TF76 whole entry): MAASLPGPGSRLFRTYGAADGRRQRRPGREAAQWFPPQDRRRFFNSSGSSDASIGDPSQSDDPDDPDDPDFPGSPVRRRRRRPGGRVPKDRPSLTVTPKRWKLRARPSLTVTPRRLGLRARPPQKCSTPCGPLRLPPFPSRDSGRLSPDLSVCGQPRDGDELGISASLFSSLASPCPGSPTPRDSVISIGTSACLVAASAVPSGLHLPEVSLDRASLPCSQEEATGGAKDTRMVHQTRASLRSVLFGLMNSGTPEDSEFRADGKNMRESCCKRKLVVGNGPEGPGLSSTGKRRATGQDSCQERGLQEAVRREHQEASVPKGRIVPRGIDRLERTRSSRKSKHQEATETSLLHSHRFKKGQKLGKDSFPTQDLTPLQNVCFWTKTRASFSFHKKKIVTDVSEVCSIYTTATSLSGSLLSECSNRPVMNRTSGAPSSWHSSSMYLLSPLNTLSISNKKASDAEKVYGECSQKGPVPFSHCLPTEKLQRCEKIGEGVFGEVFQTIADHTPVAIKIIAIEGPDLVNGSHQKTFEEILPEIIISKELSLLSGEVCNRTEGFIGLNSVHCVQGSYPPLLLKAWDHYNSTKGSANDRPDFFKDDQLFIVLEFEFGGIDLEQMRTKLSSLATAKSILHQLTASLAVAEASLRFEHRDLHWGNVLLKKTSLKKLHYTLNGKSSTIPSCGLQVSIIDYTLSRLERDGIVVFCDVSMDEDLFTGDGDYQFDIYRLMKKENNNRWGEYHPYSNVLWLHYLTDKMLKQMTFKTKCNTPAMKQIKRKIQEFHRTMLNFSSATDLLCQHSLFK
Sequence of Casein kinase I isoform delta (Homo sapiens) (P48730 whole entry, looked up, canonical isoform): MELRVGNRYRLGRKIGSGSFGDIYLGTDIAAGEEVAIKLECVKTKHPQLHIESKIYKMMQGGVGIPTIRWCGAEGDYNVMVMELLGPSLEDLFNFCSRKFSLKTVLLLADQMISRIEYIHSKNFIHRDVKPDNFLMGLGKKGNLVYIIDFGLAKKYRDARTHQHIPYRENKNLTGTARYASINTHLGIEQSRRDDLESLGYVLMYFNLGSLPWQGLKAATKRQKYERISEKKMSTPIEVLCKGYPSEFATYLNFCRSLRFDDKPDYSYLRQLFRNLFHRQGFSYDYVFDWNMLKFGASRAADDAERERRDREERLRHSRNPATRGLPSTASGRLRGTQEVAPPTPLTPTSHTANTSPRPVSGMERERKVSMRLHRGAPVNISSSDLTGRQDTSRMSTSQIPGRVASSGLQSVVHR
Sequence of Homeodomain-interacting protein kinase 2 (Homo sapiens) (Q9H2X6 whole entry, looked up): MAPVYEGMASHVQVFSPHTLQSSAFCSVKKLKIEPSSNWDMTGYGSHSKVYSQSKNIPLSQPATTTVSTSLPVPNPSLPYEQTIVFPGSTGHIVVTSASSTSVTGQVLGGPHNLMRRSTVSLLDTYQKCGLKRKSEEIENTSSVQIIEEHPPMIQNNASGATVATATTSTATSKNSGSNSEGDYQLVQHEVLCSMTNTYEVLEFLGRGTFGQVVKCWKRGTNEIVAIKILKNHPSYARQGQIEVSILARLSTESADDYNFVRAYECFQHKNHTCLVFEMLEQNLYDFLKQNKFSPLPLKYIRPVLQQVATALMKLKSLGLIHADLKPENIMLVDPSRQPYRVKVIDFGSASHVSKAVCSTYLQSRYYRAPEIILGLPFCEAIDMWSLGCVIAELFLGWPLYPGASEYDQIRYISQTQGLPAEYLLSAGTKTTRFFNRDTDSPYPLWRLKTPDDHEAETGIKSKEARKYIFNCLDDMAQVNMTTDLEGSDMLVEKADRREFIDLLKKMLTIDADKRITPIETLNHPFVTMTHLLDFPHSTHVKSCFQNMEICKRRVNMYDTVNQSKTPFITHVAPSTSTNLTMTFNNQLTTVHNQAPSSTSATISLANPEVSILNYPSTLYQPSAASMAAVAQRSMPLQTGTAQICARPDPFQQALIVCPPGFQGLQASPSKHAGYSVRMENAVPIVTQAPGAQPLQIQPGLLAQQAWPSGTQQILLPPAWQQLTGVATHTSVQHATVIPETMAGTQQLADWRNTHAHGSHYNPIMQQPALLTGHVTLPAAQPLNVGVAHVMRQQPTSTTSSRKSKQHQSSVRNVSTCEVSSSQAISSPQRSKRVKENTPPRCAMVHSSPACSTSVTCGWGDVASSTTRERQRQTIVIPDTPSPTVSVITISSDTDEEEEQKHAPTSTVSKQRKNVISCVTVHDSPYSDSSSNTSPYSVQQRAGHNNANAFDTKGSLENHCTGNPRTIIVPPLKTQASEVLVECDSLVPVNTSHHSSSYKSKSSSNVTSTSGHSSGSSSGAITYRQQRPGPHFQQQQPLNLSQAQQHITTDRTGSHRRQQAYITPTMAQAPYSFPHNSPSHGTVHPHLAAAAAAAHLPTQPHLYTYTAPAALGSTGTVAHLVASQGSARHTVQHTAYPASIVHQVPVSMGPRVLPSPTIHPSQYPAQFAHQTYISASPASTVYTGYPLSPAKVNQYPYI
Sequence of Dual specificity tyrosine-phosphorylation-regulated kinase 2 (Homo sapiens) (Q92630 whole entry): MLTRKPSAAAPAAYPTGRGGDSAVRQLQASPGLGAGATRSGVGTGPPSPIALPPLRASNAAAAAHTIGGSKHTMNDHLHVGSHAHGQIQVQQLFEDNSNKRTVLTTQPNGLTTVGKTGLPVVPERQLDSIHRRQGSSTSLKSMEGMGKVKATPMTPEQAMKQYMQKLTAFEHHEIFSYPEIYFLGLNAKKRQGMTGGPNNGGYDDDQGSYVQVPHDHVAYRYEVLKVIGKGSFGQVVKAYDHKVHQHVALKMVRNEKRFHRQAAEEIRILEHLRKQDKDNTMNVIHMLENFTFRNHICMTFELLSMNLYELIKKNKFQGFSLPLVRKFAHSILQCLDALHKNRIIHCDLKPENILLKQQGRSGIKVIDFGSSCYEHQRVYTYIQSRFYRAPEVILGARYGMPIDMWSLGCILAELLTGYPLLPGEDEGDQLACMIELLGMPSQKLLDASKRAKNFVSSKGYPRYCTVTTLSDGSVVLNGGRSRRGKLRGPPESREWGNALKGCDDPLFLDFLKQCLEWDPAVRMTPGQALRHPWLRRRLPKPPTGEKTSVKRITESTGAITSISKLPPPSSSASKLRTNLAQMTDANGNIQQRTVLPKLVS

ΔTm [1]: -0.4 °C
ΔTm [2]: 0 °C
ΔTm [3]: -0.1 °C
pIC50 [4]: < 5.00
ΔTm [5]: -0.5 °C
ΔTm [6]: -0.1 °C
ΔTm [7]: -0.4 °C
ΔTm [8]: 0.1 °C
ΔTm [9]: 0.3 °C
ΔTm [10]: 1.4 °C
pIC50 [11]: < 5.00
ΔTm [12]: -2.5 °C
pIC50 [13]: < 5.00
pIC50 [14]: 5.47
ΔTm [15]: 3.2 °C
pIC50 [16]: < 5.00
ΔTm [17]: 1 °C
pIC50 [18]: 5.08
pIC50 [20]: < 5.00
pIC50 [21]: 5.05
ΔTm [22]: 0.9 °C
ΔTm [23]: 2 °C
SMILES: O=C1NC(NC23CC4CC(CC(C4)C2)C3)=N/C1=C\c1ccc2scnc2c1
ΔTm [19]: -0.2 °C
